{"source": "patent US4500731A", "about": "“Derivatives of 4-phenyl-4-oxobuten-2-oic acid, pharmaceutical compositions containing them, and therapeutic uses for them” (Roussel Uclaf, priority 1981, dated 1985)", "key": {"[1]": {"system": "stress ulcers in the stomachs of rats", "experiment": "anti-ulcer activity, stress ulcer (stress and cold)", "type": "in vivo, rat (female)", "details": "10 mg/kg, by esophageal tube", "protocol": "(2) Determination of anti-ulcer activity\nThe technique consists in inducing ulcers in the stomachs of rats by stress (stress and cold). The technique used is described by E. C. SENAY and R. J. LEVINE, Proc. Soc. Exp. Biol., 124, 1221 (1967).\nFemale rats of 150 g were used (5 animals per lot) which have fasted for 48 hours with water ad libitum and glucose solution for 8 hours. The animals were given the compound being tested, or 0.5% solution of carboxymethylcellulose for the control animals, by esophageal tube. Two hours later the animals were bundled in a jacket of netting. Their paws were tied and the entire unit was placed in a refrigerator at 8° C. for two hours. The rats were released and killed with ether.\nTheir stomachs were opened along the greater curvature and examined with a binocular magnifier. The seriousness of the lesions was rated from 0 to 3 for each stomach.\nFor each lot of the rats, the average intensity of the ulcerations was determined. The degree of ulceration for the test animals was determined and compared with the control animals for each lot."}, "acute toxicity (LD50)": {"experiment": "acute toxicity (LD50)", "details": "mouse, in vivo, po; orally in mice", "protocol": "(3) Determination of acute toxicity\nThe LD50 was evaluated after administration of the products orally in mice."}, "gastric secretions": {"system": "gastric secretions", "experiment": "anti-gastric secretion activity (Shay, pylorus-ligated rats), total acidity of gastric juice", "type": "in vivo, rat (male)", "details": "10 mg/kg, intraduodenally, 3 hours", "protocol": "(1) Determination of the anti-gastric secretion activity\nThe technique used is described by H. SHAY et al. in Gastroenterology, 5, 43, (1945).\nMale rats were used weighing about 200 g (10 animals per lot) which had been without food for 48 hours but were allowed an 8% glucose solution ad libitum. After the rats were slightly anesthetized with ether, the pylorus of each was ligated. After the end of the operation, the compound to be tested was administered intraduodenally in different doses, or in the case of the control animals, a 0.5% solution of carboxymethylcellulose was administered intraduodenally, after which the abdominal incision was sutured.\nThree hours later, the animals were sacrificed and their stomachs removed, after ligating the esophagus. The gastric juice was removed and centrifuged. The volume of gastric juice was then determined and the total acidity was established by titrating a 100 μl sample of gastric juice to a pH of 7 by means of 1/10 N aqueous sodium hydroxide solution.\nThe percentages of variation in total acidity between gastric secretions of the test and control animals were calculated, with the results appearing below."}}}
{"smiles": "O=C(O)/C=C/C(=O)c1ccc2c(c1)OCCO2", "note": "[Example 2, (E) 4-(2,3-dihydrobenzodioxine-6-yl)-4-oxobuten-2-oic acid]", "values": [{"measurement": "Anti-ulcer activity: Ulceration (% variation as compared with the controls)", "setting": "[1]", "result": -33, "unit": "%"}, {"measurement": "LD50", "setting": "acute toxicity (LD50)", "result": 750, "unit": "mg/kg"}, {"measurement": "Anti-secretion activity: Acid conc. (% variation as compared with the controls)", "setting": "gastric secretions", "result": -41, "unit": "%"}]}
{"smiles": "COc1cc(C(=O)/C=C/C(=O)O)ccc1O", "note": "[Example 1, (E) 4-(3-methoxy-4-hydroxyphenyl)-4-oxobuten-2-oic acid]", "values": [{"measurement": "Anti-ulcer activity: Ulceration (% variation as compared with the controls)", "setting": "[1]", "result": -89, "unit": "%"}, {"measurement": "LD50", "setting": "acute toxicity (LD50)", "result": 1000, "unit": "mg/kg"}, {"measurement": "Anti-secretion activity: Acid conc. (% variation as compared with the controls)", "setting": "gastric secretions", "result": -90, "unit": "%"}]}
